This note sets out measurements from ChEMBL document CHEMBL5579838, “Design, synthesis and antitumor activity of a novel FGFR2-selective degrader to overcome resistance of the FGFR2V564F gatekeeper mutation based on a pan-FGFR inhibitor” (Eur J Med Chem, 2024).

Series [1] deals with von Hippel-Lindau disease tumor suppressor/Fibroblast growth factor receptor 2 (Homo sapiens, UniProt P21802+P40337). The experiment in a line: PROTAC activity at VHL/FGFR2 in human KATO III cells assessed as induction of FGFR2 degradation incubated for 24 hrs by Western blot analysis. The class given is cell-based. The settings on record: kato iii stomach cancer cell line. (In western blotting, separated proteins are transferred to a membrane and probed.)

Series [2] has as its target T1, Fibroblast growth factor receptor 3 (Homo sapiens, UniProt P22607).
Target sequence in this assay (P22607 whole entry): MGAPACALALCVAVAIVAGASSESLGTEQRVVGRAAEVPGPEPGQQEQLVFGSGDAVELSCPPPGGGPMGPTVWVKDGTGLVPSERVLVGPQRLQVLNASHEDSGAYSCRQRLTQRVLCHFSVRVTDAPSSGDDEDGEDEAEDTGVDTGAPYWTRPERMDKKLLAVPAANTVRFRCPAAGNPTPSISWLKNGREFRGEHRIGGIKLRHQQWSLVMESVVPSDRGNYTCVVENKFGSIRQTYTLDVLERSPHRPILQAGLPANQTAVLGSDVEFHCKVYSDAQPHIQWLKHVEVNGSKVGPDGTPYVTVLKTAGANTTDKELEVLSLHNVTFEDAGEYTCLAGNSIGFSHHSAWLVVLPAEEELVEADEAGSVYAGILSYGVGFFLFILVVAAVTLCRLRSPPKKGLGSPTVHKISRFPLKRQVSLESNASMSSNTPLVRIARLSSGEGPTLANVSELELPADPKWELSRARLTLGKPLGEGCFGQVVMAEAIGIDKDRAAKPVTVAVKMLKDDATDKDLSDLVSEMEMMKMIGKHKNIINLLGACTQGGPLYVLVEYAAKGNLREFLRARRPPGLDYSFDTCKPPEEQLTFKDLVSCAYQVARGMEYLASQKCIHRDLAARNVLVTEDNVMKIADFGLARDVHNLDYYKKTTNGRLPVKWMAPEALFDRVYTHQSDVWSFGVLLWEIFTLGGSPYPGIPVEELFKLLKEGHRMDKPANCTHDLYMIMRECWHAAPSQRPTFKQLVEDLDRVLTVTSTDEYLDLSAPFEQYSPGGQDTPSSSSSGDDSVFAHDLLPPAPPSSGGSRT
Description: Inhibition of FGFR3 (unknown origin)
Series [3] deals with T1, Fibroblast growth factor receptor 3. As to the kind of experiment: Induction of FGFR3 degradation in human MCF7 cells assessed as reduction in FGFR3 level at 0 to 300 nM measured after 24 hrs by Western blot analysis. The class given is cell-based. The settings on record: dose 0-300 nM.
Target sequence in this assay (P22607 23-806 limits assumed): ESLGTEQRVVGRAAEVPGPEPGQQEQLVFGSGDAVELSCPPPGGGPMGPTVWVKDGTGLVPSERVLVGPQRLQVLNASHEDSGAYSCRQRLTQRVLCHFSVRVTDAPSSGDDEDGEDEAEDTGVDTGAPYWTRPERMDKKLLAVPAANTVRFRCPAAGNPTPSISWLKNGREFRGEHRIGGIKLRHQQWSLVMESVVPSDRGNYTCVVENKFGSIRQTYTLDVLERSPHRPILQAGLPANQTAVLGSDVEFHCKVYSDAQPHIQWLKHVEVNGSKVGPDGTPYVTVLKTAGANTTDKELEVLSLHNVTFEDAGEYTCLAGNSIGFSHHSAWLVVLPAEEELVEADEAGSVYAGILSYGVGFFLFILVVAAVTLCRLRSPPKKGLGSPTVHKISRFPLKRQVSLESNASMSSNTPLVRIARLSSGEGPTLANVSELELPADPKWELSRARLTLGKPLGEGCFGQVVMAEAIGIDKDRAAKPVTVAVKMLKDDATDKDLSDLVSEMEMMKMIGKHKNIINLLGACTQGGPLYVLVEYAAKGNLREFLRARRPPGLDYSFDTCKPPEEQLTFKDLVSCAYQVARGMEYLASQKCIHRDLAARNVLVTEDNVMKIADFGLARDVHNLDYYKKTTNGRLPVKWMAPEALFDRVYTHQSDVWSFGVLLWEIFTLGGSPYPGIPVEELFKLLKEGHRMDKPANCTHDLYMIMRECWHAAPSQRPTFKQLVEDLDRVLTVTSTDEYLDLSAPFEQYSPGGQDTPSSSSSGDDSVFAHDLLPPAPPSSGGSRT
Series [4] addresses T2, Fibroblast growth factor receptor 1 (Homo sapiens, UniProt P11362). The experiment in a line: Induction of FGFR1 degradation in human BXPC-3 cells assessed as reduction in FGFR1 level at 300 nM measured after 24 hrs by Western blot analysis relative to control. On the set-up: scale not given: the % may be the effect or the level left. It is filed as cell-based.
Target sequence in this assay (P11362 22-822 limits assumed): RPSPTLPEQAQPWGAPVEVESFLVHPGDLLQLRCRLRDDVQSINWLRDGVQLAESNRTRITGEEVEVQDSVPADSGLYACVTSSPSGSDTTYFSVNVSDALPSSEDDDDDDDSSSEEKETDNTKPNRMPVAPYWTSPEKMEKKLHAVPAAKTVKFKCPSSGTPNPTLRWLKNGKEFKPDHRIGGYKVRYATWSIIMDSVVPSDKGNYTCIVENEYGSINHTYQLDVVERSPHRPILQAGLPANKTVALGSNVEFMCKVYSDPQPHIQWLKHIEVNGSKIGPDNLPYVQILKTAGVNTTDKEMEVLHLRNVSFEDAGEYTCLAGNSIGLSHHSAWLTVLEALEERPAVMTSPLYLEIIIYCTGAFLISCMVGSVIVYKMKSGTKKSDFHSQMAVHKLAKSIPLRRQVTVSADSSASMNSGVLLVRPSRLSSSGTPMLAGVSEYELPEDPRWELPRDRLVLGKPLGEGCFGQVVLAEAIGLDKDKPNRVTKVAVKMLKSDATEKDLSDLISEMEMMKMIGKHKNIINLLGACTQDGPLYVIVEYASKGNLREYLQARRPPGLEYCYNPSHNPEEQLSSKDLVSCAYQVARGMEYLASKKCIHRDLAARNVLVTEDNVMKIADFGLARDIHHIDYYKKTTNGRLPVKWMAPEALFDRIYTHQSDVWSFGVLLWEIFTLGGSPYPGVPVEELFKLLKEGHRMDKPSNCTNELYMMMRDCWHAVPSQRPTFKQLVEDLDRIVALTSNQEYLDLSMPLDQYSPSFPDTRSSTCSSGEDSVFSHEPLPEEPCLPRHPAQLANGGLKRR
Series [5] addresses T3, Fibroblast growth factor receptor 4 (Homo sapiens, UniProt P22455). The experiment in a line: Induction of FGFR4 degradation in human Huh-7 cells assessed as reduction in FGFR4 level at 0 to 300 nM measured after 24 hrs by Western blot analysis. It is filed as cell-based. The settings on record: dose 0-300 nM.
Target sequence in this assay (P22455 22-802 limits assumed): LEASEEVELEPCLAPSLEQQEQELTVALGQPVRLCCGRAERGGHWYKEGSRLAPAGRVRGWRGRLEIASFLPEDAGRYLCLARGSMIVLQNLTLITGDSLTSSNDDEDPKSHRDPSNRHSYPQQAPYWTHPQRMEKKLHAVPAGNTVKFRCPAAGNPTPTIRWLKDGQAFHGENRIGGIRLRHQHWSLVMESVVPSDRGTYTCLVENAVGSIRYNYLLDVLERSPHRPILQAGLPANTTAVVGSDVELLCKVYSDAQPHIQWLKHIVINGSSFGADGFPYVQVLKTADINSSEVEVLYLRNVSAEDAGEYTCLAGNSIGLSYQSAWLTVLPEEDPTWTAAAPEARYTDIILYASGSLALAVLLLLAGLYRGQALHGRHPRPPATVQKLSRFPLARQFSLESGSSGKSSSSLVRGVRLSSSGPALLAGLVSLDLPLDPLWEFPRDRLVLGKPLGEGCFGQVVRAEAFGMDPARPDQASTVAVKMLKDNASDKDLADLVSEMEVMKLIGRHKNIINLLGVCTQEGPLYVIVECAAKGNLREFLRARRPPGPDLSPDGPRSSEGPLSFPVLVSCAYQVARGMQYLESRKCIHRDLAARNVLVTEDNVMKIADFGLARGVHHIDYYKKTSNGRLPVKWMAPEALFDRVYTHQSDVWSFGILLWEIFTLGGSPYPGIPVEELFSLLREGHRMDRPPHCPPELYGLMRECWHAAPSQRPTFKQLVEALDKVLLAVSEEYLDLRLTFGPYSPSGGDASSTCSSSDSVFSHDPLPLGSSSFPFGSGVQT
Series [6] in a line: in vitro. The settings on record: human, HEK293T cells.
The target of series [7] is T3, Fibroblast growth factor receptor 4. As to the kind of experiment: Induction of FGFR4 degradation in human Huh-7 cells assessed as reduction in FGFR4 level measured after 24 hrs by Western blot analysis. It is filed as cell-based.
Target sequence in this assay (P22455 whole entry): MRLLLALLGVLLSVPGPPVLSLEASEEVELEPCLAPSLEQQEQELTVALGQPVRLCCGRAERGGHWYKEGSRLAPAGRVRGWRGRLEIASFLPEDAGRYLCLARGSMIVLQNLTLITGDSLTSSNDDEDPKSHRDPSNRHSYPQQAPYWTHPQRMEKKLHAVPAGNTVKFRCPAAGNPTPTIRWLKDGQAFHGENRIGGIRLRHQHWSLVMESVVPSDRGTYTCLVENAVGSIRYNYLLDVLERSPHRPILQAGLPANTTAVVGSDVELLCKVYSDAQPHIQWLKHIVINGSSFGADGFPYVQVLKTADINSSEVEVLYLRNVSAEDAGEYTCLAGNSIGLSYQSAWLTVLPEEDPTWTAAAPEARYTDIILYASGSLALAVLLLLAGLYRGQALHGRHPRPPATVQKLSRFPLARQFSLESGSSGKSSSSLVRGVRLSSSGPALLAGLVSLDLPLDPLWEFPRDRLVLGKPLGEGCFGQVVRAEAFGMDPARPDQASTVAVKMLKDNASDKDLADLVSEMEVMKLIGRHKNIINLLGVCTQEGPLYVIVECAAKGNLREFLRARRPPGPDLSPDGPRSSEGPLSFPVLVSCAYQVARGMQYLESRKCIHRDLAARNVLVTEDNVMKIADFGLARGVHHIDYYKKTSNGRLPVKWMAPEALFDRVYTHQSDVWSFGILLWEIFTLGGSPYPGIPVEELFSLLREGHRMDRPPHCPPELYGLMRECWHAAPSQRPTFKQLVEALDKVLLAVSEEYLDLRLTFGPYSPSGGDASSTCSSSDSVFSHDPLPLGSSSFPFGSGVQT
Series [8] in a line: AUC (0 to t) in overnight fasted mouse at 1 mg/kg, iv administered as single dose by LC-MS/MS analysis. Conditions: in vivo. The class given is ADME, organism-based.
Series [9] can be described thus: Cmax in overnight fasted mouse at 1 mg/kg, iv administered as single dose by LC-MS/MS analysis. The class given is ADME, organism-based. Conditions: in vivo.
The nature of series [10]: Tmax in overnight fasted mouse at 10 mg/kg, po administered as single dose by LC-MS/MS analysis. It is filed as ADME, organism-based. The settings on record: in vivo.
Series [11] deals with BaF3. The experiment in a line: Antiproliferative activity against mouse BaF3 cells stably expressing wild type ETV6-FGFR2 fusion protein incubated for 72 hrs by CCK-8 assay. The class given is functional, cell-based. Conditions: BaF3, 72 h. For orientation: Tetrazolium dyes change colour on reduction, which living cells bring about.
The subject of the next series is HCT-116. As to the kind of experiment: cells. Conditions: Homo sapiens, HCT-116, 72 h.
The subject of series [12] is BaF3. As to the kind of experiment: Antiproliferative activity against mouse BaF3 cells stably expressing wild type ETV6-FGFR3 fusion protein incubated for 72 hrs by CCK-8 assay. The class given is functional, cell-based. Conditions: BaF3, 72 h.
The test system of a further series is SNU-449. As to the kind of experiment: cells. Conditions: Homo sapiens, SNU-449, 72 h.
Series [13] in a line: Half life in overnight fasted mouse at 10 mg/kg, po administered as single dose by LC-MS/MS analysis. The settings on record: in vivo. It is filed as ADME, organism-based.
Series [14] can be described thus: in vitro. The settings on record: human, L02 cells.
The test system of series [15] is KATO III stomach cancer cell line. As to the kind of experiment: cells. Conditions: Homo sapiens, 72 h.
Description: Antiproliferative activity against FGFR2 amplified human KATO III cells measured after 3 days by MTT assay
Another series relates to BXPC-3. As to the kind of experiment: cells. Conditions: Homo sapiens, BXPC-3, 72 h.
In series [16] the test system is AN3-CA. The experiment in a line: Inhibition of cell migration in adherent human AN3-CA cells overexpressing FGFR2 assessed as inhibition of lateral migration at 10 nM incubated for 48 hrs by wound healing assay relative to control. The class given is functional.
A short description of another series: cells. The settings on record: Homo sapiens, Huh-7, 72 h.
A further series relates to MDA-MB-231. The experiment in a line: cells. The settings on record: Homo sapiens, MDA-MB-231, 72 h.
Series [17] concerns the target T2, Fibroblast growth factor receptor 1.
Target sequence in this assay (P11362 whole entry): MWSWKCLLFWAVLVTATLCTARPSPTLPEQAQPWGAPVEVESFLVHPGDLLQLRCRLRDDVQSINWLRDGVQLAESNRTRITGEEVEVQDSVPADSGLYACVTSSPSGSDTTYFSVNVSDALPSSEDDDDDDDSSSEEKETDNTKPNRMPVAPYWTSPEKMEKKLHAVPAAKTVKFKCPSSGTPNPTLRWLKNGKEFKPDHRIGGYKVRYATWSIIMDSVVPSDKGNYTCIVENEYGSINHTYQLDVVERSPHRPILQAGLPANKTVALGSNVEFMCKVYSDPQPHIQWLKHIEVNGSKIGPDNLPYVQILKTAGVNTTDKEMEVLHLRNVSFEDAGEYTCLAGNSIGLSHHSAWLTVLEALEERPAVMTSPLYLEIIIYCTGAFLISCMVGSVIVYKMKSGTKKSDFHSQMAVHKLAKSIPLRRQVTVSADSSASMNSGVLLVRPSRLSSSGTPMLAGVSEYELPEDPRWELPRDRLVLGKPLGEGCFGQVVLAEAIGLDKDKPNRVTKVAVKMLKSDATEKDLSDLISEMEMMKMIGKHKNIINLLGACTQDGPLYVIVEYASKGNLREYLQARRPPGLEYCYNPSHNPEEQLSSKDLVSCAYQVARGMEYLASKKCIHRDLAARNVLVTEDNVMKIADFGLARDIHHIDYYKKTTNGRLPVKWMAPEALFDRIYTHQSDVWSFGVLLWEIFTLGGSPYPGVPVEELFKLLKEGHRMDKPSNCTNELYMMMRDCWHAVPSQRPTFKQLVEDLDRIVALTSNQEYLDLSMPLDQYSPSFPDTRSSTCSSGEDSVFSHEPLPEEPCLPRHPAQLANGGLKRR
Description: Inhibition of FGFR1 (unknown origin)
Series [18] concerns AN3-CA. The experiment in a line: cells. The settings on record: Homo sapiens, 72 h.
Description: Antiproliferative activity against human AN3-CA cells overexpressing FGFR2 measured after 72 hrs by MTT assay
In series [19] the test system is BaF3. The experiment in a line: Antiproliferative activity against mouse BaF3 cells stably expressing wild type ETV6-FGFR1 fusion protein incubated for 72 hrs by CCK-8 assay. The class given is functional, cell-based. The settings on record: BaF3, 72 h.
Series [20] in a line: Half life in overnight fasted mouse at 1 mg/kg, iv administered as single dose by LC-MS/MS analysis. The settings on record: in vivo. The class given is ADME, organism-based.
The nature of series [21]: Cmax in overnight fasted mouse at 10 mg/kg, po administered as single dose by LC-MS/MS analysis. Conditions: in vivo. It is filed as ADME, organism-based.
Series [22] concerns the target T2, Fibroblast growth factor receptor 1. The experiment in a line: Induction of FGFR1 degradation in human BXPC-3 cells assessed as reduction in FGFR1 level measured after 24 hrs by Western blot analysis. It is filed as cell-based.
Target sequence in this assay (P11362 whole entry): as above
Series [23] concerns the target T3, Fibroblast growth factor receptor 4.
Target sequence in this assay (P22455 whole entry): as the sequence (P22455 whole entry) above
Description: Inhibition of FGFR4 (unknown origin)
A further series has as its system NCI-H1975. As to the kind of experiment: cells. The settings on record: Homo sapiens, NCI-H1975, 72 h.
The subject of another series is MCF7. As to the kind of experiment: cells. The settings on record: Homo sapiens, MCF7, 72 h.
Series [24] relates to KATO III stomach cancer cell line. The experiment in a line: Induction of cell cycle arrest at G0/G1 phase in FGFR2 amplified human KATO III cells assessed as inhibition of cyclin D1 protein expression at 0.1 to 10 nM by Western blot analysis. It is filed as functional, cell-based. Conditions: dose 0.1-10 nM.
Series [25] has the same test system. The experiment in a line: Inhibition of PLC-gamma autophosphorylation in human KATO III cells at 1 to 10 nM measured after 24 hrs by Western blot analysis. Conditions: dose 1-10 nM. The class given is cell-based.
Series [26] has as its target T1, Fibroblast growth factor receptor 3. The experiment in a line: Induction of FGFR3 degradation in human MCF7 cells assessed as reduction in FGFR3 level measured after 24 hrs by Western blot analysis. It is filed as cell-based.
Target sequence in this assay (P22607 whole entry): as the sequence (P22607 whole entry) above
A short description of series [27]: Oral bioavailability in overnight fasted mouse at 10 mg/kg administered as single dose by LC-MS/MS analysis. It is filed as ADME, organism-based. The settings on record: in vivo.
A short description of series [28]: AUC (0 to t) in overnight fasted mouse at 10 mg/kg, po administered as single dose by LC-MS/MS analysis. Conditions: in vivo. The class given is ADME, organism-based.
For series [29], the system named is KATO III stomach cancer cell line. The experiment in a line: Induction of cell cycle arrest at G0/G1 phase in FGFR2 amplified human KATO III cells assessed as inhibition of CDK4 protein expression at 0.1 to 10 nM by Western blot analysis. It is filed as functional, cell-based. The settings on record: dose 0.1-10 nM.
In series [30] the test system is BaF3. The experiment in a line: Antiproliferative activity against mouse BaF3 cells stably expressing wild type ETV6-FGFR4 fusion protein incubated for 72 hrs by CCK-8 assay. The settings on record: BaF3, 72 h. The class given is functional, cell-based.
The subject of series [31] is KATO III stomach cancer cell line. As to the kind of experiment: Induction of cell cycle arrest at G0/G1 phase in FGFR2 amplified human KATO III cells assessed as inhibition of CDK6 protein expression at 0.1 to 10 nM by Western blot analysis. It is filed as functional, cell-based. Conditions: dose 0.1-10 nM.
The subject of another series is SNU-16. The experiment in a line: cells. The settings on record: Homo sapiens, SNU-16, 72 h.
Series [32] relates to KATO III stomach cancer cell line. As to the kind of experiment: Induction of cell cycle arrest at G0/G1 phase in FGFR2 amplified human KATO III cells at 0.1 to 10 nM incubated for 24 hrs by PI staining based flow cytometry analysis. It is filed as functional. Conditions: dose 0.1-10 nM. On the technique in general: A flow cytometer gives signals particle by particle.
Series [33] deals with T4, Fibroblast growth factor receptor substrate 2 (Homo sapiens) (UniProt Q8WU20).
T4 sequence (whole entry): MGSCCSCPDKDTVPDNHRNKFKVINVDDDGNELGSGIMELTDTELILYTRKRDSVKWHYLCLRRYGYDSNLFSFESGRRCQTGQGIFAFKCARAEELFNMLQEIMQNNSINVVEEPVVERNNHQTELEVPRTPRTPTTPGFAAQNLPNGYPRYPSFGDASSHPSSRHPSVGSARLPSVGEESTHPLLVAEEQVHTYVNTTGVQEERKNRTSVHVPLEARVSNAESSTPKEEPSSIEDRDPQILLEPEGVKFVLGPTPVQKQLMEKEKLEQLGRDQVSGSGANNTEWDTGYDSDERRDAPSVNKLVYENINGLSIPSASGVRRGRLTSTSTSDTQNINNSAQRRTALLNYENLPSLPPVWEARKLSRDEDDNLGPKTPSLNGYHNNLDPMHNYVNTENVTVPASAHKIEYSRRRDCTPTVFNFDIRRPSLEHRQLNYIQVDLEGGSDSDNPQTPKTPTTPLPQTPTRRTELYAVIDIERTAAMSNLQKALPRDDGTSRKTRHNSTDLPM
As to the kind of experiment: Inhibition of FRS2 autophosphorylation in human KATO III cells at 1 to 10 nM measured after 24 hrs by Western blot analysis. The settings on record: KATO III stomach cancer cell line, dose 1-10 nM. The class given is cell-based.

The test system of the next series is A2780. The experiment in a line: cells. The settings on record: Homo sapiens, A2780, 72 h.
Series [34] addresses Vascular endothelial growth factor receptor 2 (Homo sapiens) (UniProt P35968). The experiment in a line: Induction of VEGFR2 (unknown origin) degradation.

Active and inactive are the calls of the source. The calls are words filed in the database; no cut-off is given here. Bounds are passed on as bounds.

Description for SNU-16: Antiproliferative activity against FGFR2 amplified human SNU-16 cells measured after 72 hrs by MTT assay

Regarding `COc1cc(OC)c(Cl)c(NC(=O)N(C)c2cc(Nc3ccc(N4CCN(CC(=O)N[C@H](C(=O)N5C[C@H](O)C[C@H]5C(=O)N[C@@H](C)c5ccc(-c6scnc6C)cc5)C(C)(C)C)CC4)cc3)ncn2)c1Cl`, the DC50 (as a rule, the concentration giving 50% degradation) in series [1] is 70 nM.
As for `C[C@@H](Oc1ccc2[nH]nc(/C=C/c3cnn(CCNC(=O)CCCCCNc4ccc5c(c4)C(=O)N(C4CCC(=O)NC4=O)C5=O)c3)c2c1)c1c(Cl)cncc1Cl` (stereo partly drawn), the IC50 (usually the concentration that gives 50% inhibition) stood at 1.26 nM in series [2]; 0.91 nM with BaF3 [11]; 1910 nM in the series with HCT-116; 0.2 nM in the series on BaF3 [12]; 923 nM in the series with SNU-449; 0.79 nM in [15]. For the same compound, the IC50 with BXPC-3 was 997 nM; in “cells”, over 5000 nM; in the series with MDA-MB-231, 2520 nM; in [17], 1.47 nM; in the series on AN3-CA [18], 4.63 nM; with BaF3 [19], 27.5 nM. Moreover, the IC50 came to 15.1 nM in series [23]; 2240 nM in the series on NCI-H1975; 2980 nM with MCF7; 32.7 nM in the series with BaF3 [30]; 0.207 nM in the series with SNU-16; 627 nM in the series with A2780. Moreover, the result in series [3], in series [5] and in series [34] was inactive. Besides, the Activity in series [4] was 30%. Moreover, the IC50 at 72 h in “in vitro [6]” is 2140 nM; in the series “in vitro [14]”, over 5000 nM. Moreover, the 50% degradation concentration (DC50) in series [7], in series [22] and in series [26] was over 300 nM throughout. Besides, the AUC(0-t) (commonly exposure summed from dosing to a finite time, without extrapolation to infinity) in [8] is 151 ng·h/mL; in [28], 9.61 ng·h/mL. The Cmax (commonly the maximum level reached in the sampled fluid or tissue) in series [9] amounted to 1940 ng/mL; in [21] it was 19.4 ng/mL. The Tmax (in general, the time from dosing to the highest level) in [10] was 30 min. For the same compound, the half-life (usually how long it takes for the measured level to halve) in series [13] is 45 min; in series [20], 4.14 min. Besides, the inhibition – broadly, the change of the read-out against control, counted positive when it falls – at 0.01 µM in the series on AN3-CA [16] is over 15%. Besides, the outcome in series [24], in series [29], in series [31] and in series [32] was Active. Further, the inhibition entry in series [25] and in series [33] was “Active” each time. Also, the bioavailability (commonly dose-corrected exposure relative to a reference, in per cent) in series [27] stood at 0.64%.
